According to patent US20230045390A1, “PLASMODIUM VIVAX MALE GAMETE FUSION PROTEIN PVHAP2 AND THE PUTATIVE PROLIFERATING-CELL NUCLEOLAR ANTIGEN P120 AS RELAPSE BIOMARKERS” (Seattle Children's Hospital dba Seattle Children's Research …, priority 2021, published 2023):
“Also recorded” adds a separate entry of the source.

Key:
P. vivax = assay: 18S qRT-PCR analysis of liver parasite load in infected FRG huHep mice; format: in vivo, Plasmodium vivax; settings: for parasite load, 18S rRNA in liver tissue by RT-qPCR: compared to DMSO
Method: (§1) All animal procedures were conducted in accordance with and approved by the Center for Infectious Disease Research Institutional Animal Care and Use Committee (IACUC). The Center for Infectious Disease Research IACUC adheres to the NIH Office of Laboratory Animal Welfare standards (OLAW welfare assurance #A3640-01). Female FRG KO mice engrafted with human hepatocytes (FRG KO huHep) were purchased from Yecuris Corporation (Oregon, USA). P. vivax infections of FRG huHEP were performed as previously described. Briefly, mice were divided in five experimental groups. Group 1 (3 mice) was not infected. Group 2 (6 mice) was inoculated with P. vivax sporozoites by the bite of 20 mosquitos and euthanized after 8 days post-infection (dpi). Group 3 (6 mice) was infected by intravenous injection of P. vivax sporozoites (0.8 million) and euthanized after 8 dpi. Group 4 (6 mice) was infected by intravenous injection of P. vivax sporozoites (1 million sporozoites) and euthanized after 21 dpi. Group 5 (3 mice) was infected by intravenous injection (1 million sporozoites) and treated with Tafenoquine (10 mg/kg) at 14 dpi and euthanized at 21 dpi. MMV048 (Novartis) mice treatment (30 mg/kg) was performed as follows: three mice from Groups 2 and 3 received intravenous injections of the drug at 4 dpi; three mice from Group 4 received intravenous injections of the drug at 17 dpi. Three DMSO-treated animals were used as controls in groups 2, 3 and 4. After euthanasia, livers were extracted for characterization by IFA and RT-qPCR and whole blood was extracted by cardiac venipuncture for plasma collection as previously described (Schafer C, et al. A recombinant antibody against Plasmodium vivax UIS4 for distinguishing replicating from dormant liver stages. Malar J 17, 370 (2018)).
Liver parasite load from infected FRG huHEP mice was quantified as previously described (Flannery E L, et al. Assessing drug efficacy against Plasmodium falciparum liver stages in vivo. JCI Insight 3, (2018)).

[1] = test system: P. cynomolgi liver hypnozoites; settings: radical cure mode, both in vitro and in vivo; cited from earlier work
[2] = test system: P. vivax liver stages in PHH; assay: P. vivax infection of primary human hepatocytes (PHH), quantification of extraerythrocytic forms by IFA; format: cell-based, Plasmodium vivax; settings: 0.1 μM after day 3 post-infection, fixed day 6
Method: Primary human hepatocytes (BioIVT) were plated and infected in chamber slides as previously described (Schafer C, et al. A Humanized Mouse Model for Plasmodium vivax to Test Interventions that Block Liver Stage to Blood Stage Transition and Blood Stage Infection. […] 23, 101381 (2020)). Briefly, 8-well PermanoxTM slides (LabTek) were coated with collagen (Advanced Biomatrix) and seeded with 1.25×10^5 viable cells using InVitroGROTM CP medium (BioIVT) supplemented with 2% FBS without antibiotics (plating media). Four hours later, plating media was replaced with InVitroGROTM CP containing antibiotics (1× Torpedo Antibiotic Mix with 10 μM gentamycin) without serum (maintenance media). Two days after plating, cells were infected with freshly dissected P. vivax salivary gland sporozoites (MOI=1.0) for four hours in maintenance media supplemented with 20% FBS. Cells were washed once, and maintenance media replaced daily thereafter and stored at -80° C. for EV analysis. After day 3 post-infection, cultures were treated with 0.1 μM MMV048 or 0.1% DMSO as vehicle (FIG. 5). On day 6-post infection, cells were fixed and analyzed by IFA. Total extraerythrocytic forms (EEF) and schizont/hypnozoite numbers and ratio were quantified. IFA analysis of PHH and liver sections of FRG huHep mice was performed as described (Schafer C, et al. A Humanized Mouse Model for Plasmodium vivax to Test Interventions that Block Liver Stage to Blood Stage Transition and Blood Stage Infection. iScience 23, 101381 (2020); Schafer C, et al. A recombinant antibody against Plasmodium vivax UIS4 for distinguishing replicating from dormant liver stages. […] 17, 370 (2018)). Briefly, culture cells and liver tissue were fixed in 4% paraformaldehyde in TBS for 10 min (PHH) and 16 hours (liver sections). PHH were blocked and permeabilized in TBS with 2% bovine serum albumin and 0.2% Triton-X-100 (PBS/BSA/Triton). FRG huHep fixed livers were sectioned in 50 μm thick sections in a vibratome. […]

Plasmodium spp. = settings: preclinical studies; cited from earlier work
P. vivax liver stages = assay: P. vivax infection of FRG huHep mice, quantification of liver stages by IFA; format: in vivo, Plasmodium vivax
Method: as §1, with “Malar J” left out, “(2018)). IFA analysis of PHH and liver sections of FRG huHep mice was performed as described (Schafer C, et al. A Humanized Mouse Model for Plasmodium vivax to Test Interventions that Block Liver Stage to Blood Stage Transition and Blood Stage Infection. iScience 23, 101381 (2020); Schafer C, et al. A recombinant antibody against Plasmodium vivax UIS4 for distinguishing replicating from dormant liver stages. […] 17, 370 (2018)). Briefly, culture cells and liver tissue were fixed in 4% paraformaldehyde in TBS for 10 min (PHH) and 16 hours (liver sections). PHH were blocked and permeabilized in TBS with 2% bovine serum albumin and 0.2% Triton-X-100 (PBS/BSA/Triton). FRG huHep fixed livers were sectioned in 50 μm thick sections in a vibratome. Tissue sections were then permeabilized in 0.25% Triton X-100 and 3% H2O2 for 30 min followed by a blocking step in 5% skim milk in TBS for 1 hour at RT. […]” for “(2018)).”

[3] = group 4: intravenous infection, treated at 17 dpi, livers collected 21 dpi
[4] = group 5: 10 mg/kg at 14 dpi, euthanized 21 dpi

Row | SMILES | parasite load, 18S rRNA in liver tissue by RT-qPCR (P. vivax; day 21, group 4) | parasite load, 18S rRNA in liver tissue by RT-qPCR (P. vivax; mosquito bite and intravenous infection, treated at 4 dpi, analyzed 8 dpi) | activity against liver hypnozoites [1] | hypnozoites by IFA [2] | schizonts by IFA ([2]; compared to DMSO) | total extraerythrocytic forms (EEF) by IFA ([2]; compared to DMSO-treated cells) | activity against asexual, transmission and liver stages (Plasmodium spp.) | number of schizonts in liver by IFA (P. vivax liver stages; 30 mg/kg intravenous, groups 2, 3 and 4, compared to control mice) | hypnozoites in liver by IFA (P. vivax liver stages; [3]) | schizonts in liver by IFA (P. vivax liver stages; [3]) | parasite 18S rRNA in liver by RT-qPCR (P. vivax; [4]) | liver forms by IFA (P. vivax liver stages; [4])
1 | CS(=O)(=O)c1ccc(-c2cnc(N)c(-c3ccc(C(F)(F)F)nc3)c2)cc1 [MMV048] | no differences | significantly reduced parasite load | ineffective | resistance of hypnozoites to the drug | no schizonts were observed; also recorded: removed schizonts | significant reduction | potent activity | significantly lower number of schizonts; also recorded: removed schizonts | only one hypnozoite was detected | no schizonts | – | –
2 | COc1cc(C)c2c(Oc3cccc(C(F)(F)F)c3)c(OC)cc(NC(C)CCCN)c2n1 (stereo not drawn) [Tafenoquine] | – | – | – | – | – | – | – | – | – | – | presence of parasite 18S rRNA | no liver forms were quantified
